Experimental data published in US9199999B2, “Substituted imidazopyrazines” (Bayer Intellectual Property GmbH, priority 2010, dated 2015).

molecular target: human kinase Mps-1 (Homo sapiens (Human), UniProt P33981); details: read-out: Mps-1 IC50; N-terminally GST-tagged human full length recombinant Mps-1; 10 μM ATP; 1 μM biotinylated peptide substrate; 60 min at 22° C.
Sequence (P33981 whole entry): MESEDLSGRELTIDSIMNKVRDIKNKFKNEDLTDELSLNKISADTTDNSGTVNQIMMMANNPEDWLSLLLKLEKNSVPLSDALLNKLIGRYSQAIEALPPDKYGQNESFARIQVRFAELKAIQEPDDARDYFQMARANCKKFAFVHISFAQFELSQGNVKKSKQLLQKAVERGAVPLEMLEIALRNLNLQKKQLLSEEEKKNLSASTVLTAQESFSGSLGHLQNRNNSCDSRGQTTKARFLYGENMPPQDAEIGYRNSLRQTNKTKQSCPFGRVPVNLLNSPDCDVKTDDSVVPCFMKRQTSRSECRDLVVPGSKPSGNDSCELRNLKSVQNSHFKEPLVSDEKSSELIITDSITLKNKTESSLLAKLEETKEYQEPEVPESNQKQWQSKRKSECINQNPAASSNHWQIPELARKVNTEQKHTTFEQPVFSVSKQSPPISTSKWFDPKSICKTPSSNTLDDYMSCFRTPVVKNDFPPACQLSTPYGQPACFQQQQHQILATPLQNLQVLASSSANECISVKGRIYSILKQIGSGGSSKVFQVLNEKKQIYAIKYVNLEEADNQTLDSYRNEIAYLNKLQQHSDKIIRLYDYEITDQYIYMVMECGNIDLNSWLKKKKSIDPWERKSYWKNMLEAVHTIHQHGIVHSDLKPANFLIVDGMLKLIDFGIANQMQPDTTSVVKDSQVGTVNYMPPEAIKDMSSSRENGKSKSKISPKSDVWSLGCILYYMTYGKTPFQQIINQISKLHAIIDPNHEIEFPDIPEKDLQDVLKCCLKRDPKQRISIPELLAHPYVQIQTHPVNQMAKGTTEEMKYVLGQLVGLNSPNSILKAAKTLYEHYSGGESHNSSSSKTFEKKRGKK

IC50 [µM] | Compound
0.031 | O=C(NC1CC1)c1ccc(-c2cnc3c(NCCCO)nc(C#CCO)cn23)cc1 [Example 1, N-cyclopropyl-4-{8-[(3-hydroxypropyl)amino]-6-(3-hydroxyprop-1-yn-1-yl)imidazo[1,2-a]pyrazin-3-yl}benzamide]
20 | CC(C)CNc1nc(C#Cc2ccccc2)cn2c(-c3ccc(S(=O)(=O)NC4CC4)cc3)cnc12 [Example 2, N-cyclopropyl-4-[8-(isobutylamino)-6-(phenylethynyl)imidazo[1,2-a]pyrazin-3-yl]benzenesulfonamide]
20 | CC(C)CNc1nc(C#Cc2ccccc2F)cn2c(-c3ccc(S(=O)(=O)NC4CC4)cc3)cnc12 [Example 3, N-cyclopropyl-4-{6-[(2-fluorophenyl)ethynyl]-8-(isobutylamino)imidazo[1,2-a]pyrazin-3-yl}benzenesulfonamide]
1.84 | CC(C)CNc1nc(C#CCO)cn2c(-c3ccc(S(=O)(=O)NC4CC4)cc3)cnc12 [Example 4, N-cyclopropyl-4-[6-(3-hydroxyprop-1-yn-1-yl)-8-(isobutylamino)imidazo[1,2-a]pyrazin-3-yl]benzenesulfonamide]
0.022 | CC(C)(O)C#Cc1cn2c(-c3ccc(C(=O)NC4CC4)cc3)cnc2c(NCCCCO)n1 [Example 8, N-cyclopropyl-4-{8-[(4-hydroxybutyl)amino]-6-(3-hydroxy-3-methylbut-1-yn-1-yl)imidazo[1,2-a]pyrazin-3-yl}benzamide]
0.01 | O=C(NC1CC1)c1ccc(-c2cnc3c(NCCCCO)nc(C#CC4(O)CCCC4)cn23)cc1 [Example 9, N-cyclopropyl-4-{8-[(4-hydroxybutyl)amino]-6-[(1-hydroxycyclopentyl)ethynyl]imidazo[1,2-a]pyrazin-3-yl}benzamide]
0.038 | CC(C)(O)CNc1nc(C#CCO)cn2c(-c3ccc(C(=O)NC4CC4)cc3)cnc12 [Example 10, N-cyclopropyl-4-{8-[(2-hydroxy-2-methylpropyl)amino]-6-(3-hydroxyprop-1-yn-1-yl)imidazo[1,2-a]pyrazin-3-yl}benzamide]
0.993 | COc1cc(C(=O)NC2CC2)ccc1-c1cnc2c(NCCCN)nc(C#CCO)cn12 [Example 11, 4-{8-[(3-Aminopropyl)amino]-6-(3-hydroxyprop-1-yn-1-yl)imidazo[1,2-a]pyrazin-3-yl}-N-cyclopropyl-3-methoxybenzamide]
0.014 | Cc1cc(-c2cnc3c(NCC(C)C)nc(C#CCO)cn23)ccc1C(=O)NC1CC1 [Example 49, N-cyclopropyl-4-{6-(3-hydroxyprop-1-yn-1-yl)-8-[(2-methylpropyl)amino]imidazo[1,2-a]pyrazin-3-yl}-2-methylbenzamide]
0.13 | OCC#Cc1cn2c(-c3ccc(-c4cnc(C5CC5)[nH]4)cc3)cnc2c(NC[C@H](O)CO)n1 [Example 50, (2S)-3-({3-[4-(2-cyclopropyl-1H-imidazol-5-yl)phenyl]-6-(3-hydroxyprop-1-yn-1-yl)imidazo[1,2-a]pyrazin-8-yl}amino)propane-1,2-diol]
0.015 | OCC#Cc1cn2c(-c3ccc(-c4cnc(C5CC5)[nH]4)cc3)cnc2c(NCCCC(F)(F)F)n1 [Example 51, 3-{3-[4-(2-Cyclopropyl-1H-imidazol-5-yl)phenyl]-8-[(4,4,4-trifluorobutyl)amino]imidazo[1,2-a]pyrazin-6-yl}prop-2-yn-1-ol]
0.013 | C=C(C)CNc1nc(C#CCO)cn2c(-c3ccc(-c4cnc(C5CC5)[nH]4)cc3)cnc12 [Example 52, 3-{3-[4-(2-Cyclopropyl-1H-imidazol-5-yl)phenyl]-8-[(2-methylprop-2-en-1-yl)amino]imidazo[1,2-a]pyrazin-6-yl}prop-2-yn-1-ol]
0.018 | C=CCNc1nc(C#CCO)cn2c(-c3ccc(-c4cnc(C5CC5)[nH]4)cc3)cnc12 [Example 53, 3-{8-(Allylamino)-3-[4-(2-cyclopropyl-1H-imidazol-5-yl)phenyl]imidazo[1,2-a]pyrazin-6-yl}prop-2-yn-1-ol]
